One assay has as its target human cathepsin K (UniProt P43236). In words: Cathepsin K Assay (hrbCat K). The settings on record: human cathepsin K 0.4 nM, Z-Leu-Arg-AMC 8 μM, pH 5.5, 15 min preincubation; read-out: hrbCat K IP. The class given is biochemical. Put shortly: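 Human cathepsin K (0.4 nM) in pH 5.5 MES buffer with EDTA, DTT and 10% DMSO was preincubated 15 min at room temperature with compound from a ⅓ dilution series (500-0.025 μM DMSO stocks). Z-Leu-Arg-AMC (8 μM) was then added, and AMC release was followed fluorometrically (Ex 360/Em 460 nm) for 30 min; inhibition was fitted to a dose-response model.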

A further assay has as its target T1, human cathepsin F (Homo sapiens, UniProt Q9UBX1).
T1 sequence (Q9UBX1 271-484): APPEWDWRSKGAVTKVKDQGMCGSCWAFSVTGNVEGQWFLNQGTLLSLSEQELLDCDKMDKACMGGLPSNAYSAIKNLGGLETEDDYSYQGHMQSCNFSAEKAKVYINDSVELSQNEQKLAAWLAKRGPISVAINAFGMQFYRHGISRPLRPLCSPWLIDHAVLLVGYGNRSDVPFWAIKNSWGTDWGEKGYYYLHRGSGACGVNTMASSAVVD
In words: Cathepsin F assay (hCat F). It is filed as biochemical. The settings on record: human cathepsin F 10 nM, Z-Phe-Arg-AMC 8 μM, pH 5.5, 15 min preincubation; read-out: hCat F IP. In outline: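 Human cathepsin F (10 nM) in 50 mM MES pH 5.5, 2.5 mM EDTA, 2.5 mM DTT, 10% DMSO was preincubated 15 min at RT with compounds from a ⅓ DMSO dilution series (500–0.025 μM stocks). Z-Phe-Arg-AMC was added (8 μM as added), and AMC release was read by fluorescence (360/460 nm) for 20 min. Percent inhibition was fitted to a dose-response model.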

Some results are limits rather than exact numbers.

In the case of `N#CC1(NC(=O)[C@@H]2CCCC[C@H]2c2oc(C3CCC(C(F)(F)F)CC3)nc2-c2ccc(N3CCS(=O)(=O)CC3)cc2)CC1` (mixture of isomers) [Example 111, (1R,2R)-N-(1-cyanocyclopropyl)-2-(4-(4-(1,1-dioxidothiomorpholino)phenyl)-2-((1R,4R and 1S,4S)-4-(trifluoromethyl)cyclohexyl)oxazol-5-yl)cyclohexanecarboxamide], the figures for the IC50 at human cathepsin K and at human cathepsin F were 1.83 nM and 1060 nM, respectively.
The matching figures for `N#CC(NC(=O)[C@@H]1CC(F)(F)CC[C@H]1c1oc(C(F)(F)C(F)(F)F)nc1-c1ccc(C(=O)N2CCOCC2)cc1)C1CCOCC1` (single isomer, unassigned) [Example 145, (1R,2R)-N-((S or R)-cyano(tetrahydro-2H-pyran-4-yl)methyl)-5,5-difluoro-2-(4-(4-(morpholine-4-carbonyl)phenyl)-2-(perfluoroethyl)oxazol-5-yl)cyclohcxanecarboxamide]: 3 nM and 1090 nM.
The corresponding values for `CC1(c2nc(-c3ccc(N4CCS(=O)(=O)CC4)cc3)c([C@@H]3CCCC[C@H]3C(=O)NC3(C#N)CC3)o2)CCOCC1` [Example 99, (1R,2R)-N-(1-cyanocyclopropyl)-2-(4-(4-(1,1-dioxidothiomorpholino)phenyl)-2-(4-methyltetrahydro-2H-pyran-4-yl)oxazol-5-yl)cyclohexanecarboxamide] are 1.89 nM and 2230 nM.
The corresponding values for `N#CC1(NC(=O)[C@@H]2CCCC[C@H]2c2oc(C3C4CC3C4)nc2-c2ccc(N3CCS(=O)(=O)CC3)cc2)CC1` (stereo partly drawn) [Example 98, (1R,2R)-2-(2-(bicyclo[1.1.1]pentan-2-yl)-4-(4-(1,1-dioxidothiomorpholino)phenyl)oxazol-5-yl)-N-(1-cyanocyclopropyl) cyclohexanecarboxamide] are 1.43 nM and 2310 nM.
For `N#CC1(NC(=O)[C@@H]2CCCC[C@H]2c2oc(C3(C(F)(F)F)CC3)nc2-c2ccc(N3CCS(=O)(=O)CC3)cc2)CC1` [Example 110, (1R,2R)-N-(1-cyanocyclopropyl)-2-(4-(4-(1,1-dioxidothiomorpholino)phenyl)-2-(1-(trifluoromethyl)cyclopropyl)oxazol-5-yl)cyclohexanecarboxamide], the figures for the IC50 on human cathepsin K and at human cathepsin F were 1.1 nM and 931 nM, respectively.
`N#CC1(NC(=O)[C@@H]2CCCC[C@H]2c2oc(C(F)(F)C(F)(F)F)nc2-c2ccc(C(=O)N3CCOCC3)cc2)CC1` [Example 26, (1R,2R)-N-(1-cyanocyclopropyl)-2-(4-(4-(morpholine-4-carbonyl)phenyl)-2-(perfluoroethyl)oxazol-5-yl)cyclohexanecarboxamide]: the values for the IC50 on human cathepsin K and at human cathepsin F were 3.64 nM and 2960 nM, respectively.
The corresponding values for `N#Cc1cccc(-c2nc(-c3ccc(N4CCS(=O)(=O)CC4)cc3)c([C@@H]3CCCC[C@H]3C(=O)NC3(C#N)CC3)o2)c1` [Example 93, (1R,2R)-N-(1-cyanocyclopropyl)-2-(2-(3-cyanophenyl)-4-(4-(1,1-dioxidothiomorpholino)phenyl)oxazol-5-yl)cyclohexanecarboxamide] are 1.89 nM and 1100 nM.
Take `N#CC1(NC(=O)[C@@H]2CCCC[C@H]2c2oc(C(F)(F)F)nc2-c2ccc(N3CCS(=O)(=O)CC3)cc2)CC1` [Example 13, (1R,2R)-N-(1-cyanocyclopropyl)-2-(4-(4-(1,1-dioxidothiomorpholino)phenyl)-2-(trifluoromethyl)oxazol-5-yl)cyclohexanecarboxamide]: the IC50 was 0.46 nM on human cathepsin K and 628 nM at human cathepsin F.
The matching figures for `N#CC1(NC(=O)[C@@H]2CCCC[C@H]2c2oc(-c3ccc(OC(F)F)cc3)nc2-c2ccc(N3CCS(=O)(=O)CC3)cc2)CC1` [Example 64, (1R,2R)-N-(1-cyanocyclopropyl)-2-(2-(4-(difluoromethoxy)phenyl)-4-(4-(1,1-dioxidothiomorpholino)phenyl)oxazol-5-yl)cyclohexanecarboxamide]: 1.04 nM and 573 nM.
The matching figures for `N#CC(NC(=O)[C@@H]1CCCC[C@H]1c1oc(-c2ccc(F)cc2)nc1-c1ccc(N2CCS(=O)(=O)CC2)cc1)C(F)(F)F` (mixture of isomers) [Example 149, (1R,2R)-N-((S and R)-1-cyano-2,2,2-trifluoroethyl)-2-(4-(4-(1,1-dioxidothiomorpholino)phenyl)-2-(4-fluorophenyl)oxazol-5-yl)cyclohexanecarboxamide]: 1.3 nM and 53 nM.
The matching figures for `CC(C)(C)[C@@H](C#N)NC(=O)[C@@H]1CCCC[C@H]1c1oc(-c2ccc(F)cc2)nc1-c1ccc(N2CCS(=O)(=O)CC2)cc1` [Example 157, (1R,2R)-N-((S)-1-cyano-2,2-dimethylpropyl)-2-(4-(4-(1,1-dioxidothiomorpholino)phenyl)-2-(4-fluorophenyl)oxazol-5-yl)cyclohexanecarboxamide]: 289 nM and 2330 nM.
For `N#CC1(NC(=O)[C@@H]2CCCC[C@H]2c2oc(-c3ncccn3)nc2-c2ccc(N3CCS(=O)(=O)CC3)cc2)CC1` [Example 90, (1R,2R)-N-(1-cyanocyclopropyl)-2-(4-(4-(1,1-dioxidothiomorpholino)phenyl)-2-(pyrimidin-2-yl)oxazol-5-yl)cyclohexanecarboxamide], the IC50 was 7.28 nM at human cathepsin K and no less than 10000 nM on human cathepsin F.
The matching figures for `N#CC1(NC(=O)[C@@H]2CC(C(F)F)CC[C@H]2c2oc(-c3ccc(F)cc3)nc2-c2ccc(N3CCS(=O)(=O)CC3)cc2)CC1` (mixture of isomers) [Example 138, (1R,2R,5R and 1R,2R,5S)-N-(1-cyanocyclopropyl)-5-(difluoromethyl)-2-(4-(4-(1,1-dioxidothiomorpholino)phenyl)-2-(4-fluorophenyl)oxazol-5-yl)cyclohexanecarboxamide]: 12.4 nM and 151 nM.
The matching figures for `N#CC1(NC(=O)[C@@H]2CCCC[C@H]2c2oc(-c3ccc(C(F)(F)F)nc3)nc2-c2ccc(N3CCS(=O)(=O)CC3)cc2)CC1` [Example 40, (1R,2R)-N-(1-cyanocyclopropyl)-2-(4-(4-(1,1 dioxidothiomorpholino)phenyl)-2-(6-(trifluoromethyl)pyridin-3-yl)oxazol-5-yl)cyclohexane carboxamide]: 1.42 nM and 2220 nM.
The corresponding values for `N#CC1(NC(=O)[C@@H]2CCCC[C@H]2c2oc(CC3CCCCC3)nc2-c2ccc(N3CCS(=O)(=O)CC3)cc2)CC1` [Example 51, (1R,2R)-N-(1-cyanocyclopropyl)-2-(2-(cyclohexylmethyl)-4-(4-(1,1-dioxidothiomorpholino)phenyl)oxazol-5-yl)cyclohcxanecarboxamide] are 1.69 nM and 400 nM.
In the case of `CC(C)(C)c1nc(-c2ccc(N3CCS(=O)(=O)CC3)cc2)c([C@@H]2CCC(F)(F)C[C@H]2C(=O)NC2(C#N)CC2)s1` [Example 58, (1R,2R)-2-(2-(tert-butyl)-4-(4-(1,1-dioxidothiomorpholino)phenyl)thiazol-5-yl)-N-(1-cyanocyclopropyl)-5,5-difluorocyclohexane-carboxamide], the IC50 turned out to be 0.67 nM at human cathepsin K and 72 nM on human cathepsin F.
The corresponding values for `CC(C)[C@@H](C#N)NC(=O)[C@@H]1CCCC[C@H]1c1oc(-c2ccc(F)cc2)nc1-c1ccc(N2CC[S+]([O-])CC2)cc1` [Example 151, (1R,2R)-N-((S)-1-cyano-2-methylpropyl)-2-(2-(4-fluorophenyl)-4-(4-(1-oxidothiomorpholino)phenyl)oxazol-5-yl)cyclohexanecarboxamide] are 3.11 nM and 628 nM.
The matching figures for `N#CC1(NC(=O)[C@@H]2CCCC[C@H]2c2oc(-c3nccs3)nc2-c2ccc(N3CCS(=O)(=O)CC3)cc2)CC1` [Example 78, (1R,2R)-N-(1-cyanocyclopropyl)-2-(4-(4-(1,1-dioxidothiomorpholino)phenyl)-2-(thiazol-2-yl)oxazol-5-yl)cyclohexanecarboxamide]: 2.49 nM and 2650 nM.
The corresponding values for `N#CC1(NC(=O)[C@@H]2CCCC[C@H]2c2oc(-c3ncccc3C(F)(F)F)nc2-c2ccc(N3CCS(=O)(=O)CC3)cc2)CC1` [Example 80, (1R,2R)-N-(1-cyanocyclopropyl)-2-(4-(4-(1,1-dioxidothiomorpholino)phenyl)-2-(3-(trifluoromethyl)pyridin-2-yl)oxazol-5-yl)cyclohexanecarboxamide] are 2.43 nM and 1490 nM.
Regarding `N#CC1(NC(=O)[C@@H]2CC(F)(F)CC[C@H]2c2oc(C(F)(F)C(F)(F)F)nc2-c2ccc(C(=O)N3CCOCC3)cc2)CC1` [Example 119, (1R,2R)-N-(1-cyanocyclopropyl)-5,5-difluoro-2-(4-(4-(morpholine-4-carbonyl)phenyl)-2-(perfluoroethyl)oxazol-5-yl)cyclohexanecarboxamide], the values for the IC50 at human cathepsin K and at human cathepsin F were 1.04 nM and 306 nM, respectively.

(Values after patent US9458181B2, “Cathepsin cysteine protease inhibitors” (Merck Sharp & Dohme Corp., priority 2013, dated 2016).)
